Test results as given in US4333930A, “Orthoarylideneaminophenethylamines and pharmaceutical compositions” (priority 1980, dated 1982).
Like-named read-outs stand apart in the source and are kept apart here.

Legend:
[1] = system: trembling induced by oxotremorine; experiment: Antagonism of trembling induced by oxotremorine, Table 7; assay type: in vivo; settings: oral, read-out: % of inhibition of trembling induced by oxotremorine
From the text: (§1) The psychotropic profile of the present invention products has been characterized with the animals in numerous tests some of whose results are shown hereinafter. The products of the invention were always administered orally in 6% gum base.
(§2) Certain tests made it possible to show antidepressive activities. These are tests of antagonism to the effects of reserpine, oxotremorine (according to Everett G. M. et al, Science, 1956, 124, 79 and Levy J. et al, Therapie 1965, 20, 265) and to despair (according to Porsolt P. D. et al, Eur. J. Pharmacol., 1978, 47, 379-91).
% of inhibition of trembling induced by
oxotremorine as a function of the dose
administered expressed in mg/kg

[2] = system: number of escapes the animal made in 5 minutes; experiment: Escape test, Table 3; assay type: in vivo, mouse; settings: 5 min, oral, mouse, 5 minutes, read-out: % of activity (variation of the number of escapes)
From the text: The products of the invention were always administered orally in 6% gum base.
The notation NS signifies that the difference between the results noted for the product and the results noted for the excipient alone is not significant at the threshold 0.05 according to the Student t Test.

[3] = Oral toxicity (mortality) in the mouse, Table 1; assay type: in vivo; settings: mouse, in vivo, po, Swiss mice, 14 days
Method: (§3) The mortality percentages caused by the products of the present invention administered orally to Swiss mice are shown in Table 1. The animals, free of specific pathological organism were housed in an air conditioned room from 24 to 48 hours before the start of the experiments. They were divided up into lots of 5 males and 5 females. With the animals unfed for 24 hours, the substances were administered intragastrically in a base of 6% gum arabic in a volume equal to 0.1 ml for 10 g of animal weight. The mortality was recorded at 14 days.
(§4) % of mortality as a function of the dose

phenylbenzoquinone (PBQ) = experiment: Analgesic activity using phenylbenzoquinone (PBQ) as noxious agent, Table 2; assay type: in vivo, male Swiss mouse
Method: The analgesic activity was determined with the male Swiss mouse using phenylbenzoquinone (PBQ) (a variation of the method of Siegmund et al, Proc. Soc. Exp. Med., […], 95, 729-31) as the noxious agent. Twenty-eightminutes after having administered the test products in a suspension in a 6% gum base, the PBQ solution was injected. The mice were then observed ca. 5 mn. for the next five minutes.
% of analgesic activity as a function of
the dose expressed in mg/kg

Swiss mice = experiment: Oral toxicity (mortality) in the mouse, Table 1; assay type: in vivo; settings: 14 days, 20160 min
Method: as §3, §4

[4] = system: ptosis induced by reserpine; experiment: Antagonism of ptosis induced by reserpine, Table 6; assay type: in vivo; settings: oral, read-out: % of inhibition of ptosis induced by reserpine
From the text: as §1, §2
% of inhibition of ptosis induced by reserpine
as a function of the dose administered orally

[5] = system: number of displacements of the animal; experiment: Four plates test (anxiolytic activity), Table 5; assay type: in vivo; settings: oral, mouse
From the text: as §1
A certain number of products manifest an anxiolytic activity evidenced in the test with the four plates with the mouse (Table 5).
% of increase in the number of displacements of the
animal as a function of the dose expressed in mg/kg

[6] = Mus musculus, 100 mg/kg, male Swiss mouse, PBQ, read-out: % of analgesic activity
[7] = Mus musculus, 200 mg/kg, male Swiss mouse, PBQ, read-out: % of analgesic activity
[8] = 50 mg/kg, male Swiss mouse, PBQ

SMILES: C(=Nc1cc2c(cc1CCN1CCOCC1)OCO2)c1cccnc1 [COR 01 204]
- change in vivo at 50 mg/kg ([1]; 50 mg/kg): -30%
- change in vivo at 100 mg/kg ([1]; 100 mg/kg): -20%
- change in vivo at 200 mg/kg ([1]; 200 mg/kg): -30%
- change in vivo at 5 mg/kg ([2]; 5 mg/kg): -28%
- change in vivo at 25 mg/kg ([2]; 25 mg/kg): -31%
- change in vivo at 50 mg/kg [2]: -24%
- change in vivo at 75 mg/kg ([2]; 75 mg/kg): -20%
- change in vivo at 100 mg/kg ([2]; 100 mg/kg): -15%
- change in vivo at 200 mg/kg ([2]; 200 mg/kg): -24%
- mortality at 336 h ([3]; 1500 mg/kg): 0%
- mortality at 336 h ([3]; 2000 mg/kg): 10%
- inhibition in vivo at 50 mg/kg (phenylbenzoquinone (PBQ); Mus musculus, 50 mg/kg, male Swiss mouse, PBQ, read-out: % of analgesic activity): 0%
- inhibition in vivo at 100 mg/kg (phenylbenzoquinone (PBQ); [6]): 45%
- inhibition in vivo at 200 mg/kg (phenylbenzoquinone (PBQ); [7]): 42%

SMILES: CN(C)CCc1cc2c(cc1N=Cc1cccs1)OCO2 [COR 01 179]
- % of mortality (Swiss mice; 250 mg/kg): 10%
- % of mortality (Swiss mice; 500 mg/kg): 90%

SMILES: CN(C)CCc1cc2c(cc1N=Cc1cccnc1)OCO2 [COR 01 201, 6-dimethylaminoethyl N-(pyridylidene-3)-1,3-benzodioxole-5-ylamine]
- mortality at 336 h ([3]; 2000 mg/kg): 30%
- % of mortality (Swiss mice; 1000 mg/kg): 10%

SMILES: C(=Cc1ccccc1)C=Nc1cc2c(cc1CCN1CCCC1)OCO2 [COR 01 200]
- change in vivo at 10 mg/kg ([2]; 10 mg/kg): 25%
- change in vivo at 50 mg/kg [2]: 38%
- change in vivo at 25 mg/kg ([4]; 25 mg/kg): -28%
- change in vivo at 100 mg/kg ([4]; 100 mg/kg): -24%
- mortality at 336 h ([3]; 750 mg/kg): 0%
- mortality at 336 h ([3]; 1000 mg/kg): 10%
- mortality at 336 h ([3]; 1500 mg/kg): 70%
- % of increase in the number of displacements of the animal ([5]; 5 mg/kg): +112%
- % of increase in the number of displacements of the animal ([5]; 10 mg/kg): +180%
- % of increase in the number of displacements of the animal ([5]; 20 mg/kg): +292%
- % of increase in the number of displacements of the animal ([5]; 25 mg/kg): +142%
- % of increase in the number of displacements of the animal ([5]; 50 mg/kg): +84%

SMILES: CC(=O)Oc1ccccc1C(=O)O [Acetylsalicyclic acid, reference compound]
- inhibition in vivo at 100 mg/kg (phenylbenzoquinone (PBQ); Mus musculus, read-out: % of analgesic activity, 100 mg/kg, male Swiss mouse, PBQ): 55%
- inhibition in vivo at 200 mg/kg (phenylbenzoquinone (PBQ); Mus musculus, read-out: % of analgesic activity, 200 mg/kg, male Swiss mouse, PBQ): 61%

SMILES: CN(C)CCc1ccccc1N=CC=Cc1ccccc1 [COR 01 185, N-cinnamylidene 2-(2-N,N,-dimethylaminoethyl)aniline]
- mortality at 336 h ([3]; 1500 mg/kg): 0%
- mortality at 336 h ([3]; 2000 mg/kg): 100%

SMILES: C(=Nc1cc2c(cc1CCN1CCCCC1)OCO2)c1cccs1 [COR 01 175, 6-(2-N-piperidinoethyl) N-(thienylidene-2)-1,3-benzodioxole-5-ylamine]
- mortality at 336 h ([3]; 250 mg/kg): 0%
- mortality at 336 h ([3]; 500 mg/kg): 10%
- mortality at 336 h ([3]; 750 mg/kg): 10%
- inhibition in vivo at 100 mg/kg (phenylbenzoquinone (PBQ); [6]): 13%
- inhibition in vivo at 200 mg/kg (phenylbenzoquinone (PBQ); [7]): 71%

SMILES: CN(C)CCc1cc2c(cc1N=Cc1cccs1)OCO2 [COR 01 171]
- % of mortality (Swiss mice; 150 mg/kg): 20%
- % of mortality (Swiss mice; 250 mg/kg): 80%
- % of mortality (Swiss mice; 500 mg/kg): 90%
- % of analgesic activity (phenylbenzoquinone (PBQ); [8]): 51%

SMILES: CN(C)CCc1cc2c(cc1N=Cc1cccs1)OCO2 [COR 01 163]
- % of mortality (Swiss mice; 150 mg/kg): 25%
- % of mortality (Swiss mice; 250 mg/kg): 70%
- % of mortality (Swiss mice; 500 mg/kg): 100%
- % of analgesic activity (phenylbenzoquinone (PBQ); [8]): 17.5%

SMILES: CN(C)CCc1cc2c(cc1N=Cc1ccc(Cl)cc1)OCO2 [COR 01 208]
- mortality at 336 h ([3]; 500 mg/kg): 0%
- mortality at 336 h ([3]; 750 mg/kg): 30%
- mortality at 336 h ([3]; 1000 mg/kg): 20%
- mortality at 336 h ([3]; 1500 mg/kg): 20%
- mortality at 336 h ([3]; 2000 mg/kg): 80%
